From US7537775B2, “Low pH skin care compositions containing dehydroacetic acid” (The Procter & Gamble Company, priority 2005, dated 2009)

Assay: Stability of dehydroacetic acid in aqueous low-pH skin care compositions
Assay type: physicochemical
Conditions: observation from formulation attempts
Excerpt: Dehydroacetic acid also has proven effective in improving skin texture and appearance, and has the additional benefit of reducing oily skin. See, for example, Biederman et al., U.S. Pat. No. 6,150,403. […] Therefore, a need remains for stable, low-pH skin care compositions to effect delivery of dehydroacetic acid, either alone or in combination with other low-pH skin care actives.
The present invention describes skin care compositions in which dehydroacetic acid is stabilized at a pH of about 4.5 and below. […] To effect stabilization of dehydroacetic acid, the compositions of the present invention include oils that have both an optimal solubility parameter and limited solubility in water. The present invention describes stable skin care compositions made by a procedure that utilizes this combination of properties to stabilize dehydroacetic acid in its active form at a low-pH.
Herein, “stable” and “stability” mean compositions which are substantially unaltered in chemical or physical state. […] Transport and storage conditions may include prolonged exposure to temperatures of from about −50° F. to about 150° F. Stability may be determined either by empirical observation or by appropriate methods of chemical analysis that would be known to one of skill in the art.

CC(=O)C1C(=O)C=C(C)OC1=O (stereo not shown) [dehydroacetic acid, 3-acetyl-6-methyl-2H-pyran-2,4,(3H)-dione]
pH below which dehydroacetic acid begins to exhibit instability: below 7.0
